# Data as given in US20210253562A1, “ACYLSUFONAMIDE COMPOUNDS USEFUL AS EP3 RECEPTOR ANTAGONISTS” (Janssen Pharmaceutica NV, priority 2018, published 2021).
# Read-outs that look alike come from different tables or passages of the source.
# Experiments:
# [1] = target: T1, EP3 membrane (EP3 receptor) (Homo sapiens, UniProt P43115); experiment: [3H]-PGE2 binding; EP3 competition binding (SPA)
# T1 construct: purchased Millipore HTS092M
# T1 sequence (P43115 1-390): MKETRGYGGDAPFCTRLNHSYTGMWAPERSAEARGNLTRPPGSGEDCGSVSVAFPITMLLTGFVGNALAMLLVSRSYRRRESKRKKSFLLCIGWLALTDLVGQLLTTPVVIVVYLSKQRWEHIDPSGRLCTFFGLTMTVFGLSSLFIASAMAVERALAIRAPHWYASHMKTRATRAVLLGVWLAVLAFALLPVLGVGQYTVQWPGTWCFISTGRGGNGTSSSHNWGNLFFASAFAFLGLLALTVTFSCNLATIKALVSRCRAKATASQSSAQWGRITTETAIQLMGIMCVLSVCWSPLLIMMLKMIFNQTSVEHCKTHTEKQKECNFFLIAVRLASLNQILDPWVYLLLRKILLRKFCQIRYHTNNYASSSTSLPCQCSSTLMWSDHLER
# Summary of the method: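 Ki derived from one-site nonlinear regression of scintillation proximity counts after 2 h room-temperature equilibration. Serially diluted (1:3) compounds competed against [3H]-PGE2 (2 nM) for EP3 receptor membranes (2 μg/well) in pH 7.4 Tris buffer with 10 mM MgCl2, 1 mM EDTA, 0.1% DMSO.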
# [2] = target: T2, CHO cells over-expressing the EP3 receptor (Homo sapiens, UniProt P43115); experiment: CHO cell cAMP assay; EP3 cAMP antagonist dose response (sulprostone reference), HTRF; assay type: cell-based; conditions: sulprostone 700 nM (EC80) and FSK 2 μM (EC70); read-out: CHO_cAMP IC50
# T2 construct: expressed in transfected cells; host or cells: CHO cells
# T2 sequence (P43115 1-390): T1 sequence (P43115 1-390)
# Experimental: Biological Example 2: CHO Cell cAMP Assay
# This assay monitored the cAMP generation in CHO cells over-expressing the EP3 receptor in the presence or absence of antagonist stimulated with Forskolin (FSK, CAS No. 66428-89-5) and a known EP3 Agonist (sulprostone, CAS No. 60325-46-4). For detection, a homogeneous competitive immunoassay (Time Resolved Fluorescence Energy Transfer (hTR-FRET)) was used.
# Cells (6K cells per well) were plated in Poly-D-Lysine coated plates the day before the assay was to be run and were incubated at 37° C. One hour before the assay the media was removed and replaced with assay buffer (500 mL HBSS (+Ca)+2.5 mL 1M HEPES+6.66 mL 7.5% BSA) (starved at 37° C.). At the start of the assay the buffer was removed from the cells and replaced with buffer containing test compound(s). Sulprostone at an EC80 dose (700 nM) and FSK at an EC70 dose (2 μM) were added to initiate the reaction (37° C. for 30 minutes).
# FSK increases cAMP production and sulprostone decreases cAMP production produced by FSK. In this assay, EP3 antagonists will increase the cAMP to the level of cAMP generated by FSK alone.
# The reaction was terminated with the addition of cAMP detection reagents (labeled cAMP and labeled cAMP antibody in lysis buffer (HTRF reagent, which utilizes a cryptate-labeled anti-cAMP and d2-labeled cAMP-d2 is an HTRF acceptor fluorophore)). Approximately one hour later the plates were read on an Envision (Perkin Elmer) in HTRF mode. Well results were calculated based on a ratio of counts at 665 nm and 615 nm (data output was a calculation of the ratio: (read @665 nm/read @ 615 nm)*1000. For test compounds dosed serially, well results were converted to nM cAMP using a cAMP standard run on each plate. nM cAMP from a set of wells dosed with test compound(s) were plotted. nM cAMP was calculated for each well from a standard curve located on each plate (P1-12 and P13-24) by first calculating the slope and deriving the intercept(b):
# [formula] NScAMP_s tan dard_cruve=m(nM cAMP_s tan dard_curve)+b
# NSP, NSN, NSsample were converted to nM cAMP using the following equation: […]
# IC50 values were determined from a […] (Hill equation) of a single 11-point compound dosing. A best-fit curve was determined by the minimum sum of squares method plotting cAMP produced vs compound concentration.
smiles,measurement,setting,value
"O=C(NC/C(F)=C1/CCc2cnn(-c3ccc(C(F)(F)F)cc3)c21)NS(=O)(=O)c1cc(Cl)c(Cl)s1 [Compound #137, (E)-4,5-dichloro-N-((2-fluoro-2-(1-(4-(trifluoromethyl)phenyl)-4,5-dihydrocyclopenta[c]pyrazol-6(1H)-ylidene)ethyl)carbamoyl)thiophene-2-sulfonamide]",Ki,[1],220 nM
same,IC50,[2],488 nM
"O=C(NC/C=C1\CCCc2cnn(C3CCN(c4ccc(F)cc4)CC3)c21)NS(=O)(=O)c1cc(Cl)c(Cl)s1 [Compound #123, (E)-4,5-dichloro-N-((2-(1-(1-(4-fluorophenyl)piperidin-4-yl)-1,4,5,6-tetrahydro-7H-indazol-7-ylidene)ethyl)carbamoyl)thiophene-2-sulfonamide]",Ki,[1],1 nM
same,IC50,[2],6 nM
"O=C(NC/C(F)=C1\CCCc2cnn(Cc3ccc(C(F)(F)F)cc3)c21)NS(=O)(=O)c1cc(Cl)c(Cl)s1 [Compound #134, (Z)-4,5-dichloro-N-((2-fluoro-2-(1-(4-(trifluoromethyl)benzyl)-1,4,5,6-tetrahydro-7H-indazol-7-ylidene)ethyl)carbamoyl)thiophene-2-sulfonamide]",Ki,[1],7 nM
same,IC50,[2],52 nM
"COc1ccc(F)c(S(=O)(=O)NC(=O)NC/C=C2\COCc3cnn(Cc4ccc(Cl)cc4Cl)c32)c1 [Compound #68, (Z)—N-((2-(1-(2,4-dichlorobenzyl)-1,4-dihydropyrano[4,3-c]pyrazol-7(6H)-ylidene)ethyl)carbamoyl)-2-fluoro-5-methoxybenzenesulfonamide]",Ki,[1],27 nM
same,IC50,[2],32 nM
"CN(C/C(F)=C1\CCCc2cnn(Cc3ccc(Cl)cc3Cl)c21)C(=O)NS(=O)(=O)c1cc(Cl)c(Cl)s1 [Compound #59, (Z)-4,5-dichloro-N-((2-(1-(2,4-dichlorobenzyl)-1,4,5,6-tetrahydro-7H-indazol-7-ylidene)-2-fluoroethyl)(methyl)carbamoyl)thiophene-2-sulfonamide]",Ki,[1],5 nM
same,IC50,[2],12 nM
"O=C(C/C=C1\CCCc2cnn(Cc3ccc(Cl)cc3Cl)c21)NS(=O)(=O)c1cc2ccccc2o1 [Compound #26, (E)-N-(benzofuran-2-ylsulfonyl)-3-(1-(2,4-dichlorobenzyl)-1,4,5,6-tetrahydro-7H-indazol-7-ylidene)propenamide]",Ki,[1],85 nM
same,IC50,[2],699 nM
"O=C(NC/C=C1\CCCc2cnn(Cc3ccc(Cl)cc3Cl)c21)NS(=O)(=O)c1cc2ccccc2s1 [Compound #27, (E)-N-((2-(1-(2,4-dichlorobenzyl)-1,4,5,6-tetrahydro-7H-indazol-7-ylidene)ethyl)carbamoyl)benzo[b]thiophene-2-sulfonamide]",Ki,[1],5 nM
same,IC50,[2],13 nM
"COc1ccc(Cl)cc1S(=O)(=O)NC(=O)NC/C=C1\COCc2cnn(Cc3ccc(Cl)cc3Cl)c21 [Compound #66, (Z)-5-chloro-N-((2-(1-(2,4-dichlorobenzyl)-1,4-dihydropyrano[4,3-c]pyrazol-7(6H)-ylidene)ethyl)carbamoyl)-2-methoxybenzenesulfonamide]",Ki,[1],4 nM
same,IC50,[2],21 nM
"O=C(NC/C=C1\CCCc2cnn(-c3ccc4ccccc4c3)c21)NS(=O)(=O)c1cc(Cl)c(Cl)s1 [Compound #79, (E)-4,5-dichloro-N-((2-(1-(naphthalen-2-yl)-1,4,5,6-tetrahydro-7H-indazol-7-ylidene)ethyl)carbamoyl)thiophene-2-sulfonamide]",Ki,[1]; unit nM,0.4 nM
same,IC50,[2],2 nM
"CS(=O)(=O)c1ccc(-n2ncc3c2/C(=C/CNC(=O)NS(=O)(=O)c2cc(Cl)c(Cl)s2)CCC3)cc1 [Compound #126, (E)-4,5-dichloro-N-((2-(1-(4-(methylsulfonyl)phenyl)-1,4,5,6-tetrahydro-7H-indazol-7-ylidene)ethyl)carbamoyl)thiophene-2-sulfonamide]",Ki,[1],1 nM
same,IC50,[2],30 nM
"CN(C/C(F)=C1\COCc2cnn(Cc3ccc(Cl)cc3Cl)c21)C(=O)NS(=O)(=O)c1cc(Cl)c(Cl)s1 [Compound #74, (E)-4,5-dichloro-N-((2-(1-(2,4-dichlorobenzyl)-1,4-dihydropyrano[4,3-c]pyrazol-7(6H)-ylidene)-2-fluoroethyl)(methyl)carbamoyl)thiophene-2-sulfonamide]",Ki,[1],35 nM
same,IC50,[2],31 nM
"CC(C)S(=O)(=O)NC(=O)CC/C=C1\CCCc2cnn(Cc3ccc(Cl)cc3Cl)c21 [Compound #69, (E)-4-(1-(2,4-dichlorobenzyl)-1,4,5,6-tetrahydro-7H-indazol-7-ylidene)-N-(isopropylsulfonyl)butanamide]",Ki,[1],179 nM
same,IC50,[2],118 nM
"O=C(CC/C=C1\COCc2cnn(Cc3ccc(Cl)cc3Cl)c21)NS(=O)(=O)c1cc(Cl)c(Cl)s1 [Compound #57, (Z)-4-(1-(2,4-dichlorobenzyl)-1,4-dihydropyrano[4,3-c]pyrazol-7(6H)-ylidene)-N-((4,5-dichlorothiophen-2-yl)sulfonyl)butanamide]",Ki,[1],1 nM
same,IC50,[2],3 nM
"O=C(NC/C=C1/c2c(cnn2Cc2ccc(Cl)cc2Cl)CCC1F)NS(=O)(=O)c1ccc(Cl)cc1 (stereo not shown) [Compound #73, (Z)-4-chloro-N-((2-(1-(2,4-dichlorobenzyl)-6-fluoro-1,4,5,6-tetrahydro-7H-indazol-7-ylidene)ethyl)carbamoyl)benzenesulfonamide]",Ki,[1],3 nM
same,IC50,[2],5 nM
"O=C(NC/C=C1\CCCc2cnn(Cc3ccc(Cl)cc3Cl)c21)NS(=O)(=O)c1cc(F)cc(F)c1 [Compound #9, (E)-N-((2-(1-(2,4-dichlorobenzyl)-1,4,5,6-tetrahydro-7H-indazol-7-ylidene)ethyl)carbamoyl)-3,5-difluorobenzenesulfonamide]",Ki,[1],6 nM
same,IC50,[2],14 nM
"O=C(NC/C=C1\CCCc2cnn(Cc3ccc(Cl)cc3Cl)c21)NS(=O)(=O)c1cc(Cl)c(Cl)s1 [Compound #7, (E)-4,5-dichloro-N-((2-(1-(2,4-dichlorobenzyl)-1,4,5,6-tetrahydro-7H-indazol-7-ylidene)ethyl)carbamoyl)thiophene-2-sulfonamide]",Ki,[1]; unit nM,0.5 nM
same,IC50,[2],11 nM
"O=C(NC/C(F)=C1\CCCCc2cnn(Cc3ccc(Cl)cc3Cl)c21)NS(=O)(=O)c1ccc(Cl)cc1 [Compound #98, (Z)-4-chloro-N-((2-(1-(2,4-dichlorobenzyl)-4,5,6,7-tetrahydrocyclohepta[c]pyrazol-8(1H)-ylidene)-2-fluoroethyl)carbamoyl)benzenesulfonamide]",Ki,[1],171 nM
same,IC50,[2],120 nM
"O=C(CC/C=C1\CCCc2cnn(Cc3ccc(Cl)cc3Cl)c21)NS(=O)(=O)c1cc(Cl)c(Cl)s1 [Compound #8, (E)-4-(1-(2,4-dichlorobenzyl)-1,4,5,6-tetrahydro-7H-indazol-7-ylidene)-N-((4,5-dichlorothiophen-2-yl)sulfonyl)butanamide]",Ki,[1]; unit nM,0.1 nM
same,IC50,[2],2 nM
"O=C(NC/C(F)=C1/c2c(cnn2Cc2ccc(Cl)cc2Cl)CCC1F)NS(=O)(=O)c1cc(Cl)c(Cl)s1 (stereo not shown) [Compound #100, (E)-4,5-dichloro-N-((2-(1-(2,4-dichlorobenzyl)-6-fluoro-1,4,5,6-tetrahydro-7H-indazol-7-ylidene)-2-fluoroethyl)carbamoyl)thiophene-2-sulfonamide]",Ki,[1],3 nM
same,IC50,[2],7 nM
"O=C(CC/C=C1\CCCc2cnn(-c3cccc(-c4ccc(Cl)cc4Cl)c3)c21)NS(=O)(=O)c1cc(Cl)c(Cl)s1 [Compound #53, (E)-4-(1-(2′,4′-dichloro-[1,1′-biphenyl]-3-yl)-1,4,5,6-tetrahydro-7H-indazol-7-ylidene)-N-((4,5-dichlorothiophen-2-yl)sulfonyl)butanamide]",Ki,[1],4 nM
same,IC50,[2],18 nM
